In ChEMBL document CHEMBL1909046, “DrugMatrix in vitro pharmacology data”:

How the values were obtained:
[1] = DRUGMATRIX: Potassium Channel [KATP] radioligand binding (ligand: [3H] Glyburide); assay type: cell membranes, Membrane; settings: hit-t15; Not Active = under 50% inhibition at 10 µM
[2] = DRUGMATRIX: Calcium Channel Type L, Phenylalkylamine radioligand binding (ligand: [3H] (-)-Desmethoxyverapamil (D-888)); assay type: cell membranes, Rattus norvegicus, Wistar, Brain, Membrane; settings: Not Active = under 50% inhibition at 10 µM
Cytochrome P450 2A6 = biological target: T1, Cytochrome P450 2A6 (Homo sapiens, UniProt P11509); settings: bti-tn-5b1-4; note: in other assays of this panel Not Active means under 50% inhibition at 10 µM
T1 sequence (P11509 whole entry): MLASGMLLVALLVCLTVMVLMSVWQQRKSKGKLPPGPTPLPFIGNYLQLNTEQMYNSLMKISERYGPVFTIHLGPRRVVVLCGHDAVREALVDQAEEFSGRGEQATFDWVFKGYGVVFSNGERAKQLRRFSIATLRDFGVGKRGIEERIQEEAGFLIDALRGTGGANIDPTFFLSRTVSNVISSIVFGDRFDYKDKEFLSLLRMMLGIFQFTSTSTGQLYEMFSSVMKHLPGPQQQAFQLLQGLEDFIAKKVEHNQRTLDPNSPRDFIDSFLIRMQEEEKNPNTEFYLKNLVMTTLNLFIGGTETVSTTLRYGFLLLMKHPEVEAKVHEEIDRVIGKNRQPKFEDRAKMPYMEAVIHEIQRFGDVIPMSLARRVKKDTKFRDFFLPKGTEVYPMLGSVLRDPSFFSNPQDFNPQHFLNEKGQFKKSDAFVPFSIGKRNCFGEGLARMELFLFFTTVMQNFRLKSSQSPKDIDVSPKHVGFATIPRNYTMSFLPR

Mu-type opioid receptor = Mu-type opioid receptor (Homo sapiens, UniProt P35372); assay: DRUGMATRIX: Opiate mu (OP3, MOP) radioligand binding (ligand: [3H] Diprenorphine); assay type: cell membranes, CHO-K1, Membrane; settings: cho-k1; Not Active = under 50% inhibition at 10 µM
Chain of Mu-type opioid receptor (P35372 whole entry): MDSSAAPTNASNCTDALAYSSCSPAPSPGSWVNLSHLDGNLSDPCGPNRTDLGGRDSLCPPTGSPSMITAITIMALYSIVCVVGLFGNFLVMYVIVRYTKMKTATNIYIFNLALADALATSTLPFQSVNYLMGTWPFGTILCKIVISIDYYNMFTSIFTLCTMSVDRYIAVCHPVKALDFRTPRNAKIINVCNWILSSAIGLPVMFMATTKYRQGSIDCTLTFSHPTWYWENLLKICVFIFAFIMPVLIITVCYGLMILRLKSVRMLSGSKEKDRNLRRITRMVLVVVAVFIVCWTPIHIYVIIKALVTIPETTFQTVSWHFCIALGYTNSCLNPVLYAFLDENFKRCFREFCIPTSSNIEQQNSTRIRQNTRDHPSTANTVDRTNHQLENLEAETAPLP

Cytochrome P450 2D6 = Cytochrome P450 2D6 (Homo sapiens, UniProt P10635); settings: bti-tn-5b1-4; note: in other assays of this panel Not Active means under 50% inhibition at 10 µM
Chain of Cytochrome P450 2D6 (P10635 whole entry): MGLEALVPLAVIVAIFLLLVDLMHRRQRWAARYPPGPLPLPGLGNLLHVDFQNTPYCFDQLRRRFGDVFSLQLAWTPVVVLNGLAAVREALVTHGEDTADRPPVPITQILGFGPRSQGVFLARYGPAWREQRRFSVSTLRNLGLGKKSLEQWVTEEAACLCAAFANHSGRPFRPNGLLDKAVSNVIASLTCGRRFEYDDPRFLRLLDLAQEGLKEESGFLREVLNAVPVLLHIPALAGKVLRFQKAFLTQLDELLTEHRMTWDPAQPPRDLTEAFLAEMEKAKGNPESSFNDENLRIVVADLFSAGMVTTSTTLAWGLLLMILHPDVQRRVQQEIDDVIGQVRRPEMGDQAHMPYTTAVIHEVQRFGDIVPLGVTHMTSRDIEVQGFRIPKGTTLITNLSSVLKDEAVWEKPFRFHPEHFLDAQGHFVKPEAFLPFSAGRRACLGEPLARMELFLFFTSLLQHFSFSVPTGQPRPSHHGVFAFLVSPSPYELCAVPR

[3] = biological target: Voltage-gated inwardly rectifying potassium channel KCNH2 (Homo sapiens, UniProt Q12809); settings: hek293; note: in other assays of this panel Not Active means under 50% inhibition at 10 µM
Chain of Voltage-gated inwardly rectifying potassium channel KCNH2 (Q12809 whole entry): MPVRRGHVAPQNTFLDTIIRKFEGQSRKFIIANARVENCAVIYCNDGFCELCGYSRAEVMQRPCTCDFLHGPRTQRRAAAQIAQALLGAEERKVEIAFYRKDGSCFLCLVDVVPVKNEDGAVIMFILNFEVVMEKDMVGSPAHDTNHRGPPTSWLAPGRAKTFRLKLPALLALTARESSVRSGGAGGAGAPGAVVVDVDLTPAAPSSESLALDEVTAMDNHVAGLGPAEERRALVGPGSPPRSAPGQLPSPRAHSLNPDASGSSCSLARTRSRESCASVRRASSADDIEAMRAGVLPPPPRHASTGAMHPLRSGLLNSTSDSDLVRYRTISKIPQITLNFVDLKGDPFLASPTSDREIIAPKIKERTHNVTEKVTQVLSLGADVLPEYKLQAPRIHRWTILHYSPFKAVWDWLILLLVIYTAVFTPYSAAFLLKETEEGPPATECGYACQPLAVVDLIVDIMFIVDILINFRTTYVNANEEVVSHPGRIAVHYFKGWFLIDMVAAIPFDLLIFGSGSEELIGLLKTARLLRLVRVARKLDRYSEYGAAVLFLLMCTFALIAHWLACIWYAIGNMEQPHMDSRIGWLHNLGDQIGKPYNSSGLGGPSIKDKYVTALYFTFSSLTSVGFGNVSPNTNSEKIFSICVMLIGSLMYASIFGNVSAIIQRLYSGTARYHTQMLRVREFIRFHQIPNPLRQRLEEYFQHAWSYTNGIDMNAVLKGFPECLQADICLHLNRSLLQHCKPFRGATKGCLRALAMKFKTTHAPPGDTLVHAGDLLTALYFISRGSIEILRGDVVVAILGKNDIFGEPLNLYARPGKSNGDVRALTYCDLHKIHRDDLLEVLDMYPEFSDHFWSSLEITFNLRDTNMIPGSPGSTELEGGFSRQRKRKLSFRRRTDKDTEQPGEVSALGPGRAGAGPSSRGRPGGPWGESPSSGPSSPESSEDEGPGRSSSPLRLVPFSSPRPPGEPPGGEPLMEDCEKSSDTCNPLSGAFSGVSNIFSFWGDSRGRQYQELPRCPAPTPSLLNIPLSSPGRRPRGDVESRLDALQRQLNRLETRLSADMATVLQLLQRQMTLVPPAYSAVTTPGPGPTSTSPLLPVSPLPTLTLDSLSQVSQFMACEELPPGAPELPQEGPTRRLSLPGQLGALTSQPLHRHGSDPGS

[4] = DRUGMATRIX: GABAA, Muscimol, Central radioligand binding (ligand: [3H] Muscimol); assay type: cell membranes, Rattus norvegicus, Wistar, Brain, Membrane; settings: Not Active = under 50% inhibition at 10 µM

Nc1cc(-c2ccncc2)c[nH]c1=O [INAMRINONE]
Not Active: IC50 [1] | Ki [1] | IC50 [2] | Ki [2] | IC50 (Cytochrome P450 2A6) | Ki (Cytochrome P450 2A6) | IC50 (Mu-type opioid receptor) | IC50 (Cytochrome P450 2D6) | Ki (Cytochrome P450 2D6) | IC50 [3] | Ki [3] | IC50 [4] | Ki [4]

CCCCC1=NC2(CCCC2)C(=O)N1Cc1ccc(-c2ccccc2-c2nnn[nH]2)cc1 [IRBESARTAN]
Not Active: IC50 [1] | Ki [1] | IC50 [2] | Ki [2] | IC50 (Cytochrome P450 2A6) | Ki (Cytochrome P450 2A6) | IC50 (Mu-type opioid receptor) | IC50 (Cytochrome P450 2D6) | Ki (Cytochrome P450 2D6) | IC50 [3] | Ki [3] | IC50 [4] | Ki [4]

CN1CCC(=C2c3ccccc3CC(=O)c3sccc32)CC1 [KETOTIFEN]
Not Active: IC50 [1] | Ki [1] | IC50 [2] | Ki [2] | IC50 (Cytochrome P450 2A6) | Ki (Cytochrome P450 2A6) | IC50 (Mu-type opioid receptor) | IC50 (Cytochrome P450 2D6) | Ki (Cytochrome P450 2D6) | IC50 [3] | Ki [3] | IC50 [4] | Ki [4]

C[N+](C)(C)C[C@H](O)CC(=O)[O-] [LEVOCARNITINE]
Not Active: IC50 [1] | Ki [1] | IC50 [2] | Ki [2] | IC50 (Cytochrome P450 2A6) | Ki (Cytochrome P450 2A6) | IC50 (Mu-type opioid receptor) | IC50 (Cytochrome P450 2D6) | Ki (Cytochrome P450 2D6) | IC50 [3] | Ki [3] | IC50 [4] | Ki [4]

C[C@H]1COc2c(N3CCN(C)CC3)c(F)cc3c(=O)c(C(=O)O)cn1c23.C[C@H]1COc2c(N3CCN(C)CC3)c(F)cc3c(=O)c(C(=O)O)cn1c23.O [LEVOFLOXACIN]
Not Active: IC50 [1] | Ki [1] | IC50 [2] | Ki [2] | IC50 (Cytochrome P450 2A6) | Ki (Cytochrome P450 2A6) | IC50 (Mu-type opioid receptor) | IC50 (Cytochrome P450 2D6) | Ki (Cytochrome P450 2D6) | IC50 [3] | Ki [3] | IC50 [4] | Ki [4]

CN1CCCC(CN2c3ccccc3Sc3ccccc32)C1 (stereo unspecified) [MEPAZINE]
1500 nM: Ki ([2]; read-out: Ki)
Not Active: IC50 [1] | Ki [1] | IC50 (Cytochrome P450 2A6) | Ki (Cytochrome P450 2A6) | IC50 (Mu-type opioid receptor) | IC50 (Cytochrome P450 2D6) | Ki (Cytochrome P450 2D6) | IC50 [3] | Ki [3] | IC50 [4] | Ki [4]
1550 nM: IC50 ([2]; read-out: IC50)

Cc1cccc(C)c1NC(=O)C1CCCCN1C (stereo unspecified) [MEPIVACAINE]
Not Active: IC50 [1] | Ki [1] | IC50 [2] | Ki [2] | IC50 (Cytochrome P450 2A6) | Ki (Cytochrome P450 2A6) | IC50 (Mu-type opioid receptor) | IC50 (Cytochrome P450 2D6) | Ki (Cytochrome P450 2D6) | IC50 [3] | Ki [3] | IC50 [4] | Ki [4]

CN(C)C(=N)NC(=N)N [METFORMIN]
Not Active: IC50 [1] | Ki [1] | IC50 [2] | Ki [2] | IC50 (Cytochrome P450 2A6) | Ki (Cytochrome P450 2A6) | IC50 (Mu-type opioid receptor) | IC50 (Cytochrome P450 2D6) | Ki (Cytochrome P450 2D6) | IC50 [3] | Ki [3] | IC50 [4] | Ki [4]

CC(C)(C)NCC(O)COc1cccc2c1CC(O)C(O)C2 (stereo unspecified) [NADOLOL]
Not Active: IC50 [1] | Ki [1] | IC50 [2] | Ki [2] | IC50 (Cytochrome P450 2A6) | Ki (Cytochrome P450 2A6) | IC50 (Mu-type opioid receptor) | IC50 (Cytochrome P450 2D6) | Ki (Cytochrome P450 2D6) | IC50 [3] | Ki [3] | IC50 [4] | Ki [4]

CN(C)C(=O)Oc1cccc([N+](C)(C)C)c1.[Br-] [NEOSTIGMINE BROMIDE]
Not Active: IC50 [1] | Ki [1] | IC50 [2] | Ki [2] | IC50 (Cytochrome P450 2A6) | Ki (Cytochrome P450 2A6) | IC50 (Mu-type opioid receptor) | IC50 (Cytochrome P450 2D6) | Ki (Cytochrome P450 2D6) | IC50 [3] | Ki [3] | IC50 [4] | Ki [4]

NC(=O)c1cccnc1 [NIACINAMIDE]
Not Active: IC50 [1] | Ki [1] | IC50 [2] | Ki [2] | IC50 (Cytochrome P450 2A6) | Ki (Cytochrome P450 2A6) | IC50 (Mu-type opioid receptor) | IC50 (Cytochrome P450 2D6) | Ki (Cytochrome P450 2D6) | IC50 [3] | Ki [3] | IC50 [4] | Ki [4]

CS(=O)(=O)Nc1ccc([N+](=O)[O-])cc1Oc1ccccc1 [NIMESULIDE]
Not Active: IC50 [1] | Ki [1] | IC50 [2] | Ki [2] | IC50 (Cytochrome P450 2A6) | Ki (Cytochrome P450 2A6) | IC50 (Mu-type opioid receptor) | IC50 (Cytochrome P450 2D6) | Ki (Cytochrome P450 2D6) | IC50 [3] | Ki [3] | IC50 [4] | Ki [4]

CN1C(=O)CN=C(c2ccccc2)c2cc([N+](=O)[O-])ccc21 [NIMETAZEPAM]
Not Active: IC50 [1] | Ki [1] | IC50 [2] | Ki [2] | IC50 (Cytochrome P450 2A6) | Ki (Cytochrome P450 2A6) | IC50 (Mu-type opioid receptor) | IC50 (Cytochrome P450 2D6) | Ki (Cytochrome P450 2D6) | IC50 [3] | Ki [3] | IC50 [4] | Ki [4]

COc1ccc2c(c1OC)C(=O)O[C@@H]2[C@H]1c2c(cc3c(c2OC)OCO3)CCN1C [NOSCAPINE]
Not Active: IC50 [1] | Ki [1] | IC50 [2] | Ki [2] | IC50 (Cytochrome P450 2A6) | Ki (Cytochrome P450 2A6) | IC50 (Mu-type opioid receptor) | IC50 (Cytochrome P450 2D6) | Ki (Cytochrome P450 2D6) | IC50 [3] | Ki [3] | IC50 [4] | Ki [4]

NC(=O)N1c2ccccc2CC(=O)c2ccccc21 [OXCARBAZEPINE]
Not Active: IC50 [1] | Ki [1] | IC50 [2] | Ki [2] | IC50 (Cytochrome P450 2A6) | Ki (Cytochrome P450 2A6) | IC50 (Mu-type opioid receptor) | IC50 (Cytochrome P450 2D6) | Ki (Cytochrome P450 2D6) | IC50 [3] | Ki [3] | IC50 [4] | Ki [4]

COc1ccnc(C[S+]([O-])c2nc3ccc(OC(F)F)cc3[nH]2)c1OC (stereo unspecified) [PANTOPRAZOLE]
Not Active: IC50 [1] | Ki [1] | IC50 [2] | Ki [2] | IC50 (Cytochrome P450 2A6) | Ki (Cytochrome P450 2A6) | IC50 (Mu-type opioid receptor) | IC50 (Cytochrome P450 2D6) | Ki (Cytochrome P450 2D6) | IC50 [3] | Ki [3] | IC50 [4] | Ki [4]

CCc1ccc(CCOc2ccc(CC3SC(=O)NC3=O)cc2)nc1 (stereo unspecified) [PIOGLITAZONE]
Not Active: IC50 [1] | Ki [1] | IC50 [2] | Ki [2] | IC50 (Cytochrome P450 2A6) | Ki (Cytochrome P450 2A6) | IC50 (Mu-type opioid receptor) | IC50 (Cytochrome P450 2D6) | Ki (Cytochrome P450 2D6) | IC50 [3] | Ki [3] | IC50 [4] | Ki [4]

CCCNC(C)C(=O)Nc1ccccc1C (stereo unspecified) [PRILOCAINE]
Not Active: IC50 [1] | Ki [1] | IC50 [2] | Ki [2] | IC50 (Cytochrome P450 2A6) | Ki (Cytochrome P450 2A6) | IC50 (Mu-type opioid receptor) | IC50 (Cytochrome P450 2D6) | Ki (Cytochrome P450 2D6) | IC50 [3] | Ki [3] | IC50 [4] | Ki [4]

CCN(CC)CCNC(=O)c1ccc(N)cc1 [PROCAINAMIDE]
Not Active: IC50 [1] | Ki [1] | IC50 [2] | Ki [2] | IC50 (Cytochrome P450 2A6) | Ki (Cytochrome P450 2A6) | IC50 (Mu-type opioid receptor) | IC50 (Cytochrome P450 2D6) | Ki (Cytochrome P450 2D6) | IC50 [3] | Ki [3] | IC50 [4] | Ki [4]

CCN(CC)CCCC(C)Nc1c2ccc(Cl)cc2nc2ccc(OC)cc12 (stereo unspecified) [QUINACRINE]
Not Active: IC50 [1] | Ki [1] | IC50 (Cytochrome P450 2A6) | Ki (Cytochrome P450 2A6) | IC50 (Mu-type opioid receptor) | IC50 (Cytochrome P450 2D6) | Ki (Cytochrome P450 2D6) | IC50 [3] | Ki [3] | IC50 [4] | Ki [4]
719 nM: Ki ([2]; read-out: Ki)
739 nM: IC50 ([2]; read-out: IC50)

C[C@]12C=CC(=O)C=C1CC[C@H]1[C@@H]3C[C@@H](O)[C@](O)(C(=O)CO)[C@@]3(C)C[C@H](O)[C@@]12F [TRIAMCINOLONE]
Not Active: IC50 [1] | Ki [1] | IC50 [2] | Ki [2] | IC50 (Cytochrome P450 2A6) | Ki (Cytochrome P450 2A6) | IC50 (Mu-type opioid receptor) | IC50 (Cytochrome P450 2D6) | Ki (Cytochrome P450 2D6) | IC50 [3] | Ki [3] | IC50 [4] | Ki [4]

CCN(C(C)=O)c1cccc(-c2ccnc3c(C#N)cnn23)c1 [ZALEPLON]
Not Active: IC50 [1] | Ki [1] | IC50 [2] | Ki [2] | IC50 (Cytochrome P450 2A6) | Ki (Cytochrome P450 2A6) | IC50 (Mu-type opioid receptor) | IC50 (Cytochrome P450 2D6) | Ki (Cytochrome P450 2D6) | IC50 [3] | Ki [3] | IC50 [4] | Ki [4]
